Measurements from patent EP1541559A1, “5-SUBSTITUTED ISOQUINOLINE DERIVATIVE” (Asahi Kasei Pharma Corporation, priority 2002, dated 2004).
Read-outs that look alike come from different tables or passages of the source.

Experiments:
BALB/c female mice = experiment: Respiratory tract inflammation suppressing action, OVA-induced (Test Example 6); assay type: in vivo; conditions: for Total WBC count x 10E5/ml/mouse: orally 30 mg/kg once a day for 5 days, inhalation of 2% OVA, alveoli washed after 24 hours
Method: According to the method described in Henderson, W.R., et al., Am. J. Respir. Cric. Care Med., 165(1), 108-116 (2002), suppressing action on bronchial inflammation was confirmed. BALB/c female mice (7-week old) were used for the test, each group consisting of 7 mice, and the control group consisting of 11 or 12 mice. The mice were intraperitoneally administered with ovalbumin (OVA, 100 ng, Sigma) and 1 mg of aluminum hydroxide for initial immunization, and after 2 weeks, they are subcutaneously administered with 10 ng of OVA as additional immunization. After further 1 week, a test compound was dissolved in water containing 0.5% carboxymethylcellulose and orally administered (30 mg/kg) to the test animals once a day for 5 days. The control group was similarly given only with water containing 0.5% carboxymethylcellulose. After 1 hour, the mice were orally inhaled with 2% OVA for 10 minutes to induce a respiratory tract inflammation. Further, the control group, in which the mice were not given with the test compound, was divided into a positive control group (n = 7), in which the mice were inhaled with 2% OVA to induce the reaction, and a negative control group (n = 4 or 5), in which the mice were similarly inhaled with physiological saline. After 24 hours, alveoli in the lungs of the test animals were washed with physiological saline, and the total infiltrated white blood cells (WBC) were counted.

[1] = system: myosin regulatory light chain; experiment: Action on amount of phosphorylated myosin regulatory light chain in the cells (Test Example 1); assay type: cell-based, human; conditions: neutrophils of healthy volunteers, reaction with test compound at 25°C for 5 minutes, read-out: Inhibition of myosin regulatory light chain phosphorylation (IC50: µM)
Method: The neutrophils were washed with PBS(-) and resuspended in Hanks' Balanced Salt Solution (HBSS+, Gibco) to prepare a cell suspension (8 x 10^6/ml). The cell suspension was diluted to 5 x 10^6/ml, introduced into Eppendorf tubes in a volume of 0.4 ml each, then 0.1 ml each of solutions of a test compound at various concentrations were added to the suspension and allowed to react at 25°C for 5 minutes. After the reaction, 0.1 ml of trichloroacetic acid solution was added to each reaction, the reaction mixture was gently shaken and centrifuged at 12,000 rpm (4°C, 5 minutes), and the supernatant was removed. Subsequently, 3 μl of 1 M Tris solution was added to the residue, the mixture was further mixed with 50 μl of extraction buffer (8 M urea, 0.02% 2-mercaptoethanol, 0.002% bromophenol blue) and left stand at room temperature for 1 hour. Then, the reaction mixture was loaded on a spin column (0.45 μm, Millipore) to remove the insoluble solids and a sample buffer for SDS polyacrylamide gel electrophoresis (25 mM, Tris-HCl pH 6.8, 2.5% 2-mercaptoethanol, 2% sodium dodecylsulfate, 5% sucrose, 0.002% bromophenol blue as final concentrations) was added, and 10 μl of each sample was subjected to electrophoresis. […] J. Physiol., 274, […]-[…] (1998)), which specifically recognize the phosphorylated myosin regulatory light chain, and donkey anti-mouse IgG (Chemicon) conjugated with horseradish peroxidase (HRP-labeled). The band of the phosphorylated myosin regulatory light chain was detected on a film by using ECL Plus Kit (Amersham Pharmacia Biotech). This band was subjected to quantification using a densitometer. By using this value, the inhibitory ratio (%) for phosphorylation of the myosin regulatory light chain was calculated by using the following equation.

Neutrophils = experiment: Neutrophil migration inhibitory action, Boyden Chamber, FMLP (Test Example 5); assay type: cell-based, human; conditions: Homo sapiens, Neutrophil, 0.5 h, FMLP (1 µM), migration at 37°C for 30 minutes; read-out: Neutrophil migration inhibition IC50
Method: Neutrophils were isolated from 50 to 100 ml of peripheral blood collected from healthy donors by the method described in Test Example 1 to obtain a cell suspension (8 x 10^6/ml). Subsequently, solutions of a test compound at various concentrations were introduced into wells of a 96-well plate in a volume of 125 µl per well, the cell suspension of an equivalent volume was added to it and the plate was preincubated at room temperature for 5 minutes. During the preincubation, FMLP (1 µM, Sigma) solution was added to the lower chamber to set Boyden Chamber, the preincubated cell suspension was added to the upper chamber in a volume of 200 µl per well, and the cells were allowed to migrate at 37°C under 5% carbon dioxide for 30 minutes. The filter after the migration was collected, and the non-migrated cells adhered to the surface that faced the upper chamber were carefully wiped off. Then, the migrated cells on the back surface were stained with DifQuick dye solution (International Reagents), washed with water and dried, and then absorbance was measured at 595 nm. The inhibition ratio against migration (%) of a test compound was calculated by using the following equation: Migration inhibition ratio (%) = (1 -Absorbance of the group with addition of test compound /Absorbance of the group without addition of test compound) x 100 [formula]

[2] = system: human neutrophil fraction; experiment: Action on increase of intracellular calcium concentration, Fura2-AM, fMLP (Test Example 7); assay type: cell-based; conditions: test compound 1 µM added 3 minutes before fMLP (1 µM), R = F340/F380, without test compound = 100%, read-out: Maximum R value (%)
Method: According to the method described in Test Example 1, a neutrophil containing fraction was prepared. Fura2-AM (Sigma) at a final concentration of 3 µM was added to the human neutrophil fraction and the mixture was incubated at 37°C for 1 hour. After centrifugation (250 g for 5 minutes), the supernatant was discarded, and the neutrophils were resuspended in Hanks' Balanced Salt Solution (HBSS, Gibco) to prepare a cell suspension (8 x 10^6/ml) for measurement of intracellular calcium concentration. The cell suspension for measurement of intracellular calcium concentration was left stand at room temperature for 30 minutes. Then, 490 µl of the cell suspension for measurement of intracellular calcium concentration was placed in a cuvette, 10 µl of calcium chloride solution at a final concentration of […] was added to it and the cuvette was set in an intracellular calcium concentration analyzer (CAF110, Nippon Bunko). fMLP (Sigma) solution at a final concentration of 1 µM was added to the cell suspension, and F340 and F380, which are fluorescence intensity at 340 nm and 380 nm, respectively, were measured to obtain an R value (F340/F380) as an index of the intracellular calcium concentration. A test compound (1 µM) was added 3 minutes before the addition of fMLP, and the action on the intracellular calcium concentration was observed. The ratios of the maximum R value obtained with addition of each test compound, based on the maximum R value obtained without addition of test compound and taken as 100%, are shown in Table 10 mentioned below.

thoracic aorta = experiment: Vasoconstriction inhibitory action on aorta rings constricted with phenylephrine (Test Example 2); set-up: species or system Rats (Wistar, 11-week old); conditions: aorta constricted with phenylephrine (1 µM); for inhibition at 1 µM: Rattus norvegicus, test compound 1 µM, read-out: Vasoconstriction inhibitory action (relaxation ratio) (%); for vasoconstriction inhibitory action: result in words
Description: Rats (Wistar, 11-week old) were bleeded to death and laparotomized to take out the thoracic aorta.

[3] = system: ovalbumin-immunized guinea pigs; experiment: Respiratory tract constriction suppression action, ovalbumin-induced (Test Example 3); assay type: in vivo, Hartley guinea pigs; conditions: result in words; test medicament given into hind leg vein after induction with 0.3 mg/kg ovalbumin, measured for 15 minutes
Method: Four-week old Hartley guinea pigs (male) were immunized by intraperitoneal administration of ovalbumin (Sigma, Grade V) in amounts of 1 mg for each animal on the day on which the experiment was started, 3 mg for each animal after 2 days, and 10 mg for each animal after 4 days. Twelve to fourteen days after the final immunization, the ovalbumin-immunized guinea pigs were anesthetized by intraperitoneal administration of about 40 mg/kg of pentobarbital (Somnopentyl), and the tracheas were taken out. Subsequently, a cannula (SP-110, Natsume) was inserted into each trachea, and one end of the cannula was connected to an artificial respirator (Model-b83, Harvard). The aeration conditions were set at 6 ml per kilogram and 60 times per 1 minute. Further, a cannula for medicament administration (JMS wing needle 23G 3/4) was inserted into a hind leg vein. Myoblock (Organon Technica) was administered in an amount of 0.5 mg/kg from the cannula inserted into the hind leg vein to stop the spontaneous breathing, and after 2 or 3 minutes, 0.3 mg/kg of ovalbumin was administered to induce constriction of respiratory tract. The increase of airway resistance value 2 minutes after the induction (measurement apparatuses: pressure transducer TR-603T, respiratory amplifier AR-601G, and recorder RTA-3100, Nihon Kohden Corp.) was confirmed to be above 80 cm H2O or higher, and then, a solution of a test medicament was administered from the cannula inserted into the hind leg vein, and the airway resistance value was continuously measured for 15 minutes after the administration to determine the effect.

[4] = Homo sapiens, Neutrophil, 5 min

SMILES	Total WBC count x 10E5/ml/mouse (BALB/c female mice) [x 10E5/ml/mouse]	IC50 [1, 4] [µM]	IC50 (Neutrophils) [nM]	activity at 1 µM [2] [%]	inhibition at 1 µM (thoracic aorta) [%]	vasoconstriction inhibitory action (thoracic aorta)	constriction of respiratory tract (airway resistance value) [3]	infiltrated white blood cell number (BALB/c female mice; result in words)	IC50 ([1]; hydrochloride) [µM]
Cl.NCCCN(CCCc1ccccc1)S(=O)(=O)c1cccc2cnccc12 [Example 1, N-[(5-Isoquinolyl)sulfonyl]-N-(3-phenylpropyl)-1,3-propylenediamine hydrochloride]	300	0.8	≤ 1000	98	73.8	–	–	–	–
Cl.NCCCN(CCc1cccs1)S(=O)(=O)c1cccc2cnccc12 [Example 2, N-[(5-Isoquinolyl)sulfonyl]-N-[2-(2-thienyl)ethyl]-1,3-propylenediamine hydrochloride]	200	0.8	1000 to 10000	99	–	significant vasoconstriction inhibitory action	significantly improved the constriction of respiratory tract	–	–
Cc1cncc2cccc(S(=O)(=O)N(CCCN)CCCc3ccccc3)c12.Cl [Example 5, N-[(4-Methyl-5-isoquinolyl)sulfonyl]-N-(3-phenylpropyl)-1,3-propylenediamine hydrochloride]	–	0.8	≤ 1000	98	–	significant vasoconstriction inhibitory action	–	–	–
Cl.NCCN(CCS(=O)(=O)c1ccccc1)S(=O)(=O)c1cccc2cnccc12 [Example 7, N-[(5-Isoquinolyl)sulfonyl]-N-[2-(phenylsulfonyl)ethyl]ethylenediamine hydrochloride]	400	30	–	101	64.3	–	–	–	–
Cl.NCCCN(CCCc1ccccc1)S(=O)(=O)c1cccc2c(N)nccc12 [Example 8, N-[(1-Amino-5-isoquinolyl)sulfonyl]-N-(3-phenylpropyl)-1,3-propylenediamine hydrochloride]	–	0.3	≤ 1000	99	–	significant vasoconstriction inhibitory action	–	–	–
Cl.NCCCOc1cccc2c(N)nccc12 [Example 10, 3-[(1-Amino-5-isoquinolyl)oxy]propylamine hydrochloride]	150	10	1000 to 10000	99	–	–	–	–	–
Cl.NCCN(CCS(=O)(=O)c1ccccc1)S(=O)(=O)c1cccc2c(O)nccc12 [Example 12, N-[(1-Hydroxy-5-isoquinolyl)sulfonyl]-N-[2-(phenylsulfonyl)ethyl]ethylenediamine hydrochloride]	100	20	1000 to 10000	–	–	significant vasoconstriction inhibitory action	significantly improved the constriction of respiratory tract	–	–
Cl.c1cc(NC2CCNCC2)c2ccncc2c1 [Example 20, 4-(5-Isoquinolyl)aminopiperidine hydrochloride]	–	1.8	1000 to 10000	100	82.8	–	significantly improved the constriction of respiratory tract	–	–
Cc1cncc2cccc(NC3CCNCC3)c12.Cl [Example 106, 4-(4-Methyl-5-isoquinolyl)aminopiperidine hydrochloride]	–	≤ 40	10000 to 40000	–	–	significant vasoconstriction inhibitory action	significantly improved the constriction of respiratory tract	decrease of infiltrated white blood cell number	≤ 20
